Measured values reported in patent EP0027679B1, “Substituted-5-((7-chloro-4-quinolinyl)amino)-3-(amino-methyl)-(1,1'-biphenyl)-2-ol compounds; processes for their production; and pharmaceutical compositions containing the compounds” (WARNER-LAMBERT COMPANY, priority 1979, dated 1981).

Experiments:
[1] = system: chloroquine-pyrimethamine-resistant Vietnam Smith strain of P. Falciparum; assay: Owl monkey infection with P. falciparum trophozoites, Vietnam Smith strain; assay type: in vivo, owl monkeys; conditions: for curative: orally at 2.0 mg/kg/day for a three day period; for cleared the parasitemia: orally at 1.0 mg/kg/day for three days
Experimental: (§1) Studies were also conducted with infections resulting from inoculations of owl monkeys with trophozoites of the chloroquine-pyrimethamine-resistant Vietnam Smith strain of P. Falciparum; the chloroquine-quinine-resistant, pyrimethamine-susceptible Vietnam Oak Knoll strain of P. Falciparum; or the pyrimethamine-resistant Uganda Palo Alto strain of P. Falciparum. The test method is described in L. H. Schmidt, Trans. R. Soc. Trop. Med Hyg. 67 446 (1973).

[2] = system: chloroquine-quinine-resistant, pyrimethamine-susceptible Vietnam Oak Knoll strain of P. Falciparum; assay: Owl monkey infection with P. falciparum trophozoites, Vietnam Oak Knoll strain; assay type: in vivo, owl monkeys; conditions: for activity relative to amodiaquine as curative agents: Oak Knoll strains of the malaria parasite; for curative / cleared the parasitemia: Vietnam Oak Knoll strain; for curative: orally at 2.0 mg/kg/day for a three day period; for activity relative to amodiaquine in clearing parasites: Oak Knoll strain; for cleared the parasitemia: orally at 1.0 mg/kg/day for three days
Experimental: as §1

[3] = system: normal drug-sensitive strain of Plasmodium berghei; assay: Plasmodium berghei in mice, single subcutaneous dose 72 h post infection, mean survival time and cures; assay type: in vivo; conditions: Table I; for MST after single s.c. dose (extension of survival time over the controls): animals not cured, control MST 6.1-6.3 days; for MST after single s.c. dose: animals cured (C): five animal group
Experimental: Compounds of the invention were tested against a normal drug-sensitive strain of Plasmodium berghei in mice by the parenteral route by a procedure described in J. Med. Chem., 1043 (1967). The compounds were dissolved or suspended in sesame or peanut oil and were administered to mice in a single subcutaneous dose seventy-two hours post infection. Extension of the mean survival time of the treated mice is interpreted as evidence of anti-malarial activity. Compounds are arbitrarily considered to be "active" when they produce at least a 100 percent increase in the mean survival time of treated mice. Animals that survive to sixty days are considered "cured" (termed "C" in Tables I and II). The means survival time (MST) of infected control mice ranges from 6.1-6.3 days while the numbers in parentheses in Tables I and II indicate extension of survival time over the controls as an average for those animals of the five animal group not "cured".

[4] = system: pyrimethamine-resistant Uganda Palo Alto strain of P. Falciparum; assay: Owl monkey infection with P. falciparum trophozoites, Uganda Palo Alto strain; assay type: in vivo, owl monkeys; conditions: orally at 1.0 mg/kg/day for three days
Experimental: as §1

[5] = Burckhalter article, Tables VI and XI; cited from earlier work

CC(C)(C)NCc1cc(Nc2cc[n+]([O-])c3cc(Cl)ccc23)cc(-c2ccc(Cl)cc2)c1O [4—Cl, H, NHC(CH3)3, 1, 4'-chloro-5-[(7-chloro-4-quinolinyl)aminoj-3-[[1,1-dimethylethyl)amino]methyl]-[1,1'-biphenyl]-2-ol-1-oxide]
curative [1]: curative
activity relative to amodiaquine as curative agents [2]: twenty times the activity of amodiaquine
curative [2]: curative

CCN(CC)Cc1cc(Nc2ccnc3cc(Cl)ccc23)ccc1O [Amodiaquine, reference compound]
MST after single s.c. dose (extension of survival time over the controls) ([3]; dose 10 (dose unit not given)): 5.7 days
MST after single s.c. dose (extension of survival time over the controls) ([3]; dose 20 (dose unit not given)): 8.3 days
MST after single s.c. dose (extension of survival time over the controls) ([3]; dose 40 (dose unit not given)): 11.9 days
MST after single s.c. dose: animals cured (C) ([3]; dose 80 (dose unit not given)): 2C
MST after single s.c. dose: animals cured (C) ([3]; dose 160 (dose unit not given)): 5C
MST after single s.c. dose: animals cured (C) ([3]; dose 320 (dose unit not given)): 5C
MST after single s.c. dose: animals cured (C) ([3]; dose 640 (dose unit not given)): 5C

CCN(CC)Cc1cc(Nc2cc[n+]([O-])c3cc(Cl)ccc23)cc(-c2ccc(Cl)cc2)c1O [Example 1]
curative [1]: curative
activity relative to amodiaquine as curative agents [2]: twenty times the activity of amodiaquine
curative [2]: curative

CCN(CC)Cc1cc(Nc2ccnc3cc(Cl)ccc23)cc(-c2ccc(Cl)cc2)c1O [Example 2, 4'-chloro-5-[(7-chloro-4-quinolinyl)amino]-3-[(diethylamino)methyl][1,1'-biphenyl]-2-ol]
cleared the parasitemia [1]: cleared the parasitemia
activity relative to amodiaquine in clearing parasites [2]: twenty times the activity of amodiaquine
cleared the parasitemia [2]: cleared the parasitemia
cleared the parasitemia [4]: cleared the parasitemia
MST after single s.c. dose (extension of survival time over the controls) ([3]; dose 10 (dose unit not given)): 14.2 days
MST after single s.c. dose: animals cured (C) ([3]; dose 10 (dose unit not given)): 2C
MST after single s.c. dose: animals cured (C) ([3]; dose 20 (dose unit not given)): 3C
MST after single s.c. dose: animals cured (C) ([3]; dose 40 (dose unit not given)): 4C
MST after single s.c. dose: animals cured (C) ([3]; dose 80 (dose unit not given)): 5C
MST after single s.c. dose: animals cured (C) ([3]; dose 160 (dose unit not given)): 5C
MST after single s.c. dose: animals cured (C) ([3]; dose 320 (dose unit not given)): 5C
MST after single s.c. dose: animals cured (C) ([3]; dose 640 (dose unit not given)): 5C

CC(C)(C)NCc1cc(Nc2ccnc3cc(Cl)ccc23)cc(-c2ccc(Cl)cc2)c1O [Example 3, 4'-chloro-5-[(7-chloro-4-quinolinyl)amino]-3-[[(1,1-dimethylethyl)amino]methyl][1,1'-biphenyl]-2-ol]
cleared the parasitemia [1]: cleared the parasitemia
activity relative to amodiaquine in clearing parasites [2]: twenty times the activity of amodiaquine
cleared the parasitemia [2]: cleared the parasitemia
cleared the parasitemia [4]: cleared the parasitemia

C=CCc1cc(Nc2ccnc3cc(Cl)ccc23)cc(CN(CC)CC)c1O [SN-11991]
quinine equivalent [5]: 10

CCN(CC)Cc1cc(Nc2ccnc3cc(Cl)ccc23)cc(Cl)c1O [SN-13729]
quinine equivalent [5]: 12
